pKi: −log10 of the molar value.
These compounds were tested against T1, Adenosine receptor A2a (Homo sapiens, UniProt P29274) (assay: not given).
T1 sequence (P29274 whole entry): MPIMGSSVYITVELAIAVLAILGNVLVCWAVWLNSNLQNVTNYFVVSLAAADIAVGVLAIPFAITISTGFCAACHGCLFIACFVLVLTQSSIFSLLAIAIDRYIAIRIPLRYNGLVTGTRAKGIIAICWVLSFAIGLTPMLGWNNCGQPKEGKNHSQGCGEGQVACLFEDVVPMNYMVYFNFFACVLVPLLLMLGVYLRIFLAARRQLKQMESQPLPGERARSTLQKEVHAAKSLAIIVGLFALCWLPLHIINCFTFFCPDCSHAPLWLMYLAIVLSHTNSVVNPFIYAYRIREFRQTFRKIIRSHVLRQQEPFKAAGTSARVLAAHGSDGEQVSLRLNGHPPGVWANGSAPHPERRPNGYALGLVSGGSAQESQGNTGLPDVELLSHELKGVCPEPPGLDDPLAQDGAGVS

Row | pKi | SMILES
1 | 6.52 | COc1cc(-c2cc3c([nH]2)c(=O)n(C)c(=O)n3C)ccc1OCC(=O)Nc1ccccc1
2 | 7.81 | O=C(COc1ccc(-c2cc3c([nH]2)c(=O)n(CC2CC2)c(=O)n3CC2CC2)cc1)Nc1ccccc1
3 | 6.16 | Cn1c(=O)c2[nH]c(-c3ccc(OCC(=O)NC4CCCC4)cc3)cc2n(C)c1=O
4 | 7.51 | CCCn1c(=O)c2[nH]c(-c3ccc(OCC(=O)Nc4ccc(Br)cc4)cc3)cc2n(CCC)c1=O
5 | 7.05 | CCCn1c(=O)c2[nH]c(-c3ccc(OCC(=O)NCc4ccccc4)cc3)cc2n(CCC)c1=O
6 | 5.99 | CN(Cc1ccccc1)C(=O)COc1ccc(-c2cc3c([nH]2)c(=O)n(C)c(=O)n3C)cc1
7 | 7.39 | CCCn1c(=O)c2[nH]c(-c3ccc(OCC(=O)Nc4ccc(F)cc4)cc3)c(Cl)c2n(CCC)c1=O
8 | 6.92 | COCCCn1c(=O)n(C)c(=O)c2[nH]c(-c3ccc(OCC(=O)Nc4ccccc4)cc3)cc21
9 | 7.50 | CCCn1c(=O)c2[nH]c(-c3ccc(OC(CC)C(=O)Nc4ccc(Br)cc4)cc3)cc2n(CCC)c1=O (stereo not given)
10 | 7.59 | CCCn1c(=O)c2[nH]c(-c3ccc(OC(CC)C(=O)Nc4ccccc4)cc3)cc2n(CCC)c1=O (stereo not given)
11 | 7.33 | CCCn1c(=O)c2[nH]c(-c3ccc(OC(C)C(=O)NCc4ccc(Cl)cc4)cc3)cc2n(CCC)c1=O (stereo not given)
12 | 6.77 | CCCn1c(=O)c2[nH]c(-c3ccc(OCC(=O)Nc4ccccc4)cc3)cc2n(C)c1=O
13 | 6.95 | CCCn1c(=O)n(C)c(=O)c2[nH]c(-c3ccc(OCC(=O)Nc4ccc(F)cc4)cc3)cc21
14 | 7.05 | CCCn1c(=O)c2[nH]c(-c3ccc(OCC(=O)Nc4cc(OC)nc(OC)n4)cc3)cc2n(CCC)c1=O
15 | 6.92 | CCn1c(=O)c2[nH]c(-c3ccc(OCC(=O)Nc4ccc(C#N)cc4)cc3)cc2n(CC)c1=O
16 | 7.23 | CCCn1c(=O)c2[nH]c(-c3ccc(OC(C)C(=O)Nc4ccc(F)cc4)cc3)cc2n(CCC)c1=O (stereo not given)

These compounds were tested against T1, Adenosine receptor A2a (assay: Displacement of [3H]ZM-241385 from recombinant human adenosine A2A receptor expressed in HeLa cells at 0.1 uM).

Row | inhibition [%] | SMILES
17 | 20 | COc1cc(-c2cc3c([nH]2)c(=O)n(C)c(=O)n3C)ccc1OCC(=O)Nc1ccccc1
18 | 93 | O=C(COc1ccc(-c2cc3c([nH]2)c(=O)n(CC2CC2)c(=O)n3CC2CC2)cc1)Nc1ccccc1
19 | 8 | Cn1c(=O)c2[nH]c(-c3ccc(OCC(=O)NC4CCCC4)cc3)cc2n(C)c1=O
20 | 54 | CCCn1c(=O)c2[nH]c(-c3ccc(OCC(=O)Nc4ccc(Br)cc4)cc3)cc2n(CCC)c1=O
21 | 38 | CCCn1c(=O)c2[nH]c(-c3ccc(OCC(=O)NCc4ccccc4)cc3)cc2n(CCC)c1=O
22 | 14 | CN(Cc1ccccc1)C(=O)COc1ccc(-c2cc3c([nH]2)c(=O)n(C)c(=O)n3C)cc1
23 | 54 | CCCn1c(=O)c2[nH]c(-c3ccc(OCC(=O)Nc4ccc(F)cc4)cc3)c(Cl)c2n(CCC)c1=O
24 | 29 | COCCCn1c(=O)n(C)c(=O)c2[nH]c(-c3ccc(OCC(=O)Nc4ccccc4)cc3)cc21
25 | 82 | CCCn1c(=O)c2[nH]c(-c3ccc(OC(CC)C(=O)Nc4ccc(Br)cc4)cc3)cc2n(CCC)c1=O (stereo not given)
26 | 88 | CCCn1c(=O)c2[nH]c(-c3ccc(OC(CC)C(=O)Nc4ccccc4)cc3)cc2n(CCC)c1=O (stereo not given)
27 | 57 | CCCn1c(=O)c2[nH]c(-c3ccc(OC(C)C(=O)NCc4ccc(Cl)cc4)cc3)cc2n(CCC)c1=O (stereo not given)
28 | 18 | CCCn1c(=O)c2[nH]c(-c3ccc(OCC(=O)Nc4ccccc4)cc3)cc2n(C)c1=O
29 | 24 | CCCn1c(=O)n(C)c(=O)c2[nH]c(-c3ccc(OCC(=O)Nc4ccc(F)cc4)cc3)cc21
30 | 41 | CCCn1c(=O)c2[nH]c(-c3ccc(OCC(=O)Nc4cc(OC)nc(OC)n4)cc3)cc2n(CCC)c1=O
31 | 2 | CCn1c(=O)c2[nH]c(-c3ccc(OCC(=O)Nc4ccc(C#N)cc4)cc3)cc2n(CC)c1=O
32 | 51 | CCCn1c(=O)c2[nH]c(-c3ccc(OC(C)C(=O)Nc4ccc(F)cc4)cc3)cc2n(CCC)c1=O (stereo not given)

What follows are compounds tested against T2, Adenosine receptor A2b (Homo sapiens) (UniProt P29275) (assay: Displacement of [3H]DPCPX from recombinant human adenosine A2B receptor expressed in HEK293 cells at 0.1 uM).
T2 sequence (whole entry): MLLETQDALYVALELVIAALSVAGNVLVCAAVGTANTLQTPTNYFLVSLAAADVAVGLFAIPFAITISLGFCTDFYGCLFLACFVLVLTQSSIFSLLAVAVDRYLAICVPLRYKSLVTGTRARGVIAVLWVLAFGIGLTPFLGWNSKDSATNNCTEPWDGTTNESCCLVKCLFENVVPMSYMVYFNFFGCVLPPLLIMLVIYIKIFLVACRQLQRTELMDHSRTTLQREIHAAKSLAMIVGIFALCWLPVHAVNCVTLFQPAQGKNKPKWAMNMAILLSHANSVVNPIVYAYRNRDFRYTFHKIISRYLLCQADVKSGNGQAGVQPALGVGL
Type: cell-based

Row | inhibition [%] | SMILES
33 | 27 | COc1cc(-c2cc3c([nH]2)c(=O)n(C)c(=O)n3C)ccc1OCC(=O)Nc1ccccc1
34 | 96 | O=C(COc1ccc(-c2cc3c([nH]2)c(=O)n(CC2CC2)c(=O)n3CC2CC2)cc1)Nc1ccccc1
35 | 57 | Cn1c(=O)c2[nH]c(-c3ccc(OCC(=O)NC4CCCC4)cc3)cc2n(C)c1=O
36 | 97 | CCCn1c(=O)c2[nH]c(-c3ccc(OCC(=O)Nc4ccc(Br)cc4)cc3)cc2n(CCC)c1=O
37 | 95 | CCCn1c(=O)c2[nH]c(-c3ccc(OCC(=O)NCc4ccccc4)cc3)cc2n(CCC)c1=O
38 | 67 | CN(Cc1ccccc1)C(=O)COc1ccc(-c2cc3c([nH]2)c(=O)n(C)c(=O)n3C)cc1
39 | 69 | CCCn1c(=O)c2[nH]c(-c3ccc(OCC(=O)Nc4ccc(F)cc4)cc3)c(Cl)c2n(CCC)c1=O
40 | 80 | COCCCn1c(=O)n(C)c(=O)c2[nH]c(-c3ccc(OCC(=O)Nc4ccccc4)cc3)cc21
41 | 94 | CCCn1c(=O)c2[nH]c(-c3ccc(OC(CC)C(=O)Nc4ccc(Br)cc4)cc3)cc2n(CCC)c1=O (stereo not given)
42 | 93 | CCCn1c(=O)c2[nH]c(-c3ccc(OC(CC)C(=O)Nc4ccccc4)cc3)cc2n(CCC)c1=O (stereo not given)
43 | 94 | CCCn1c(=O)c2[nH]c(-c3ccc(OC(C)C(=O)NCc4ccc(Cl)cc4)cc3)cc2n(CCC)c1=O (stereo not given)
44 | 91 | CCCn1c(=O)c2[nH]c(-c3ccc(OCC(=O)Nc4ccccc4)cc3)cc2n(C)c1=O
45 | 93 | CCCn1c(=O)n(C)c(=O)c2[nH]c(-c3ccc(OCC(=O)Nc4ccc(F)cc4)cc3)cc21
46 | 80 | CCCn1c(=O)c2[nH]c(-c3ccc(OCC(=O)Nc4cc(OC)nc(OC)n4)cc3)cc2n(CCC)c1=O
47 | 79 | CCn1c(=O)c2[nH]c(-c3ccc(OCC(=O)Nc4ccc(C#N)cc4)cc3)cc2n(CC)c1=O
48 | 88 | CCCn1c(=O)c2[nH]c(-c3ccc(OC(C)C(=O)Nc4ccc(F)cc4)cc3)cc2n(CCC)c1=O (stereo not given)

The compounds below were run against T3, Adenosine receptor A2b (Homo sapiens, UniProt P29275) (assay: not given).
T3 sequence (P29275 whole entry): T2 sequence (whole entry)

Row | pKi | SMILES
49 | 6.83 | COc1cc(-c2cc3c([nH]2)c(=O)n(C)c(=O)n3C)ccc1OCC(=O)Nc1ccccc1
50 | 8.33 | O=C(COc1ccc(-c2cc3c([nH]2)c(=O)n(CC2CC2)c(=O)n3CC2CC2)cc1)Nc1ccccc1
51 | 7.10 | Cn1c(=O)c2[nH]c(-c3ccc(OCC(=O)NC4CCCC4)cc3)cc2n(C)c1=O
52 | 8.66 | CCCn1c(=O)c2[nH]c(-c3ccc(OCC(=O)Nc4ccc(Br)cc4)cc3)cc2n(CCC)c1=O
53 | 8.50 | CCCn1c(=O)c2[nH]c(-c3ccc(OCC(=O)NCc4ccccc4)cc3)cc2n(CCC)c1=O
54 | 7.26 | CN(Cc1ccccc1)C(=O)COc1ccc(-c2cc3c([nH]2)c(=O)n(C)c(=O)n3C)cc1
55 | 7.56 | CCCn1c(=O)c2[nH]c(-c3ccc(OCC(=O)Nc4ccc(F)cc4)cc3)c(Cl)c2n(CCC)c1=O
56 | 7.86 | COCCCn1c(=O)n(C)c(=O)c2[nH]c(-c3ccc(OCC(=O)Nc4ccccc4)cc3)cc21
57 | 8.22 | CCCn1c(=O)c2[nH]c(-c3ccc(OC(CC)C(=O)Nc4ccc(Br)cc4)cc3)cc2n(CCC)c1=O (stereo not given)
58 | 8.01 | CCCn1c(=O)c2[nH]c(-c3ccc(OC(CC)C(=O)Nc4ccccc4)cc3)cc2n(CCC)c1=O (stereo not given)
59 | 8.39 | CCCn1c(=O)c2[nH]c(-c3ccc(OC(C)C(=O)NCc4ccc(Cl)cc4)cc3)cc2n(CCC)c1=O (stereo not given)
60 | 7.91 | CCCn1c(=O)c2[nH]c(-c3ccc(OCC(=O)Nc4ccccc4)cc3)cc2n(C)c1=O
61 | 8.02 | CCCn1c(=O)n(C)c(=O)c2[nH]c(-c3ccc(OCC(=O)Nc4ccc(F)cc4)cc3)cc21
62 | 7.96 | CCCn1c(=O)c2[nH]c(-c3ccc(OCC(=O)Nc4cc(OC)nc(OC)n4)cc3)cc2n(CCC)c1=O
63 | 7.87 | CCn1c(=O)c2[nH]c(-c3ccc(OCC(=O)Nc4ccc(C#N)cc4)cc3)cc2n(CC)c1=O
64 | 8.49 | CCCn1c(=O)c2[nH]c(-c3ccc(OC(C)C(=O)Nc4ccc(F)cc4)cc3)cc2n(CCC)c1=O (stereo not given)

Each compound was assayed against T2, Adenosine receptor A2b (Homo sapiens) (assay: Displacement of [3H]DPCPX from recombinant human adenosine A2B receptor expressed in HEK293 cells at 0.01 uM).

Row | inhibition [%] | SMILES
65 | 10 | COc1cc(-c2cc3c([nH]2)c(=O)n(C)c(=O)n3C)ccc1OCC(=O)Nc1ccccc1
66 | 57 | O=C(COc1ccc(-c2cc3c([nH]2)c(=O)n(CC2CC2)c(=O)n3CC2CC2)cc1)Nc1ccccc1
67 | 20 | Cn1c(=O)c2[nH]c(-c3ccc(OCC(=O)NC4CCCC4)cc3)cc2n(C)c1=O
68 | 66 | CCCn1c(=O)c2[nH]c(-c3ccc(OCC(=O)Nc4ccc(Br)cc4)cc3)cc2n(CCC)c1=O
69 | 78 | CCCn1c(=O)c2[nH]c(-c3ccc(OCC(=O)NCc4ccccc4)cc3)cc2n(CCC)c1=O
70 | 10 | CN(Cc1ccccc1)C(=O)COc1ccc(-c2cc3c([nH]2)c(=O)n(C)c(=O)n3C)cc1
71 | 10 | CCCn1c(=O)c2[nH]c(-c3ccc(OCC(=O)Nc4ccc(F)cc4)cc3)c(Cl)c2n(CCC)c1=O
72 | 27 | COCCCn1c(=O)n(C)c(=O)c2[nH]c(-c3ccc(OCC(=O)Nc4ccccc4)cc3)cc21
73 | 55 | CCCn1c(=O)c2[nH]c(-c3ccc(OC(CC)C(=O)Nc4ccc(Br)cc4)cc3)cc2n(CCC)c1=O (stereo not given)
74 | 48 | CCCn1c(=O)c2[nH]c(-c3ccc(OC(CC)C(=O)Nc4ccccc4)cc3)cc2n(CCC)c1=O (stereo not given)
75 | 55 | CCCn1c(=O)c2[nH]c(-c3ccc(OC(C)C(=O)NCc4ccc(Cl)cc4)cc3)cc2n(CCC)c1=O (stereo not given)
76 | 38 | CCCn1c(=O)c2[nH]c(-c3ccc(OCC(=O)Nc4ccccc4)cc3)cc2n(C)c1=O
77 | 43 | CCCn1c(=O)n(C)c(=O)c2[nH]c(-c3ccc(OCC(=O)Nc4ccc(F)cc4)cc3)cc21
78 | 30 | CCCn1c(=O)c2[nH]c(-c3ccc(OCC(=O)Nc4cc(OC)nc(OC)n4)cc3)cc2n(CCC)c1=O
79 | 20 | CCn1c(=O)c2[nH]c(-c3ccc(OCC(=O)Nc4ccc(C#N)cc4)cc3)cc2n(CC)c1=O
80 | 62 | CCCn1c(=O)c2[nH]c(-c3ccc(OC(C)C(=O)Nc4ccc(F)cc4)cc3)cc2n(CCC)c1=O (stereo not given)
